The target of assay [1] is T1, ERα (Homo sapiens, UniProt P03372).
T1 sequence (P03372 1-595): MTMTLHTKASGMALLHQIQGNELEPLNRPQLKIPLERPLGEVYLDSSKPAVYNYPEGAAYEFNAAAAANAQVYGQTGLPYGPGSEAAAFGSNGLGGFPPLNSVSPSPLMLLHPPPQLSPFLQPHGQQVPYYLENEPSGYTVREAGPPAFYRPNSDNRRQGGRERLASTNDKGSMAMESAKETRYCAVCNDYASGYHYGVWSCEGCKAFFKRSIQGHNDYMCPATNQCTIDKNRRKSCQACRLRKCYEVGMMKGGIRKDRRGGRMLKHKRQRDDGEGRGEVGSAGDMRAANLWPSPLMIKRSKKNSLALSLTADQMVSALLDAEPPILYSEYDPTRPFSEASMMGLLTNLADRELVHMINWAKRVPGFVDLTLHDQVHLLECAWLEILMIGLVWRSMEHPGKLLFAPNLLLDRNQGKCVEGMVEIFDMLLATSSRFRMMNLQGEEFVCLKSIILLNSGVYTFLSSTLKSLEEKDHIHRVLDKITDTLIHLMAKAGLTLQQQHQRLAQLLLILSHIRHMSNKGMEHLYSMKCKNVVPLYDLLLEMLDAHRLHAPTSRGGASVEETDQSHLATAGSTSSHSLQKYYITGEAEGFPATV
In words: ERα reporter (luciferase) transactivation assay in transfected HEK293 cells. Type of assay: cell-based. Set-up: expressed in transfected cells; host or cells: HEK293. The settings on record: sample concentration 10 μM, 24 hours, mean of at least three independent transfections. How it is done: (§1) Determination of the Estrogen Activity of the Compounds: Cell Culture, Transfection and Reporter Assays
(§2) All other reagents were of reagent grade from Sigma or Fluka. One day before transfection, HEK293 cells were seeded in 48-well plates (70×10^3 cells per well) in phenol-free Dulbecco's modified Eagle medium supplemented with 5% delipidated fetal bovine serum (Sigma) and antibiotics. After a medium change, the cells were transfected for 4 hours with 5 ng ERα or ERβ expression vector, 75 ng reporter plasmid pERE2TATA-LUC and 20 ng control plasmid pCMVβ by the calcium phosphate method. After transfection, the cells received fresh medium containing either vehicle (0.1% v/v) or test compound (10 μM). After 24 hours, the cells were washed, lysed and luciferase and β-galactosidase activities were determined from 20 μl of lysates with the Victor^2TM reader (PerkinElmer Wallac, Turku, Finland). […] The data are means ±SEM of at least three independent transfections.

Assay [2] has as its target ERβ (Homo sapiens, UniProt Q92731). Description: ERβ reporter (luciferase) transactivation assay in transfected HEK293 cells. Set-up: expressed in transfected cells; host or cells: HEK293. The settings on record: for ERβ receptor activation relative to 10 nM E2 corresponding 100: sample concentration 10 μM, 24 hours, mean of at least three independent transfections; for activation at 10 µM: HEK293, 24 h, read-out: ERβ receptor activation relative to 10 nM E2 corresponding 100, sample concentration 10 μM, mean of at least three independent transfections. Format: cell-based. How it is done: as §1, §2

The structures appear in SMILES notation.

Sequence of ERβ (Q92731 whole entry): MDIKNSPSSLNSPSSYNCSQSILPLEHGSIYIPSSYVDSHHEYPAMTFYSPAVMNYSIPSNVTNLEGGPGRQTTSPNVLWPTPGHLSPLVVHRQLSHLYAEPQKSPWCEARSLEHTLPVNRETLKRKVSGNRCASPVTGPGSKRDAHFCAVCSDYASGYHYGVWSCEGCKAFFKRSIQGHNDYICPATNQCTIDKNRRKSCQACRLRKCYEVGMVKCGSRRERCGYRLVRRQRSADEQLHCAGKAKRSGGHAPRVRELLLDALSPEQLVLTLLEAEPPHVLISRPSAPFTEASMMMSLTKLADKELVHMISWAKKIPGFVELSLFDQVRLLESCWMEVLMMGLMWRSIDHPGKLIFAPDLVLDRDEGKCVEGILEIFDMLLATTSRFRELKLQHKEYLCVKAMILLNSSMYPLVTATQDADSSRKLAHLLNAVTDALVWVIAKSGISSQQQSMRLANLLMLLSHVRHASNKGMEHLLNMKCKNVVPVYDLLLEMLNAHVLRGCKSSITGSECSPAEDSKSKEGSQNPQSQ

Regarding `COc1ccc(C2=NOC(Cc3ccccc3)C2)cc1` (single isomer, unassigned) [12a, 5-Benzyl-3-(4-methoxyphenyl)-4,5-dihydroisoxazole], the “ERα receptor activation relative to 10 nM E2 corresponding 100” value in assay [1] is recorded as 55.2%. In addition, the “ERβ receptor activation relative to 10 nM E2 corresponding 100” value in assay [2] is given as 17.2%.

For `COc1ccc(C2=NOC(Cc3ccccc3)C2)cc1` (single isomer, unassigned) [12b, 5-Benzyl-3-(4-methoxyphenyl)-4,5-dihydroisoxazole], the “ERα receptor activation relative to 10 nM E2 corresponding 100” value in assay [1] is 9.7%. Besides, the “ERβ receptor activation relative to 10 nM E2 corresponding 100” value in assay [2] was 7.9%.

For the compound `COc1ccccc1CC1CC(CCc2ccccc2)=NO1` (single isomer, unassigned) [64a, 5-(2-Methoxybenzyl)-3-phenethyl-4,5-dihydroisoxazole], the “ERα receptor activation relative to 10 nM E2 corresponding 100” value in assay [1] was 18.9%. Moreover, in assay [2], the activation at 10 µM turned out to be 9.5%.

Regarding `COc1ccccc1CC1CC(CCc2ccccc2)=NO1` (single isomer, unassigned) [64b, 5-(2-Methoxybenzyl)-3-phenethyl-4,5-dihydroisoxazole], the “ERα receptor activation relative to 10 nM E2 corresponding 100” value in assay [1] is reported as 0.4%. Further, the “ERβ receptor activation relative to 10 nM E2 corresponding 100” value in assay [2] came to 6.4%.

Turning to `COc1ccc(CC2CC(CCc3ccccc3)=NO2)cc1` (single isomer, unassigned) [65a, 5-(4-Methoxybenzyl)-3-phenethyl-4,5-dihydroisoxazole], in assay [1], the “ERα receptor activation relative to 10 nM E2 corresponding 100” value worked out at 0.8%. In addition, the “ERβ receptor activation relative to 10 nM E2 corresponding 100” value in assay [2] was found to be 10.6%.

As to `COc1ccc(CC2CC(CCc3ccccc3)=NO2)cc1` (single isomer, unassigned) [65b, 5-(4-Methoxybenzyl)-3-phenethyl-4,5-dihydroisoxazole], in assay [1], the “ERα receptor activation relative to 10 nM E2 corresponding 100” value amounted to 16.1%. Also, in assay [2], the activation at 10 µM came to 13.2%.

For `Fc1ccc(CC2CC(CCc3ccccc3)=NO2)cc1` (single isomer, unassigned) [66a, 5-(4-fluorobenzyl)-3-phenethyl-4,5-dihydroisoxazole], the “ERα receptor activation relative to 10 nM E2 corresponding 100” value in assay [1] is 99.2%. In addition, the activation at 10 µM in assay [2] came to 11.2%.

As for `Fc1ccc(CC2CC(CCc3ccccc3)=NO2)cc1` (single isomer, unassigned) [66b, 5-(4-fluorobenzyl)-3-phenethyl-4,5-dihydroisoxazole], in assay [1], the “ERα receptor activation relative to 10 nM E2 corresponding 100” value was found to be 28.9%. Further, in assay [2], the “ERβ receptor activation relative to 10 nM E2 corresponding 100” value turned out to be 7.4%.

For the compound `c1ccc(CCC2=NOC(Cc3cccc4ccccc34)C2)cc1` (single isomer, unassigned) [67a, 5-naphthalen-1-yl-methyl-3-phenethyl-4,5-dihydroisoxazole], in assay [1], the “ERα receptor activation relative to 10 nM E2 corresponding 100” value was found to be 34.1%. The activation at 10 µM in assay [2] is 10.5%.

For `c1ccc(CCC2=NOC(Cc3cccc4ccccc34)C2)cc1` (single isomer, unassigned) [67b, 5-naphthalen-1-yl-methyl-3-phenethyl-4,5-dihydroisoxazole], the “ERα receptor activation relative to 10 nM E2 corresponding 100” value in assay [1] came out at 17.2%. For the same compound, the “ERβ receptor activation relative to 10 nM E2 corresponding 100” value in assay [2] came out at 6.5%.

`c1ccc(CCC2=NOC(Cc3ccc4ccccc4c3)C2)cc1` (single isomer, unassigned) [68a, 5-naphthalen-2-yl-methyl-3-phenethyl-4,5-dihydroisoxazole]: the “ERα receptor activation relative to 10 nM E2 corresponding 100” value in assay [1] is 22.3%. Besides, in assay [2], the “ERβ receptor activation relative to 10 nM E2 corresponding 100” value worked out at 8.2%.

Consider `c1ccc(CCC2=NOC(Cc3ccc4ccccc4c3)C2)cc1` (single isomer, unassigned) [68b, 5-naphthalen-2-yl-methyl-3-phenethyl-4,5-dihydroisoxazole], for which the “ERα receptor activation relative to 10 nM E2 corresponding 100” value in assay [1] is reported as 13.0%. Besides, the “ERβ receptor activation relative to 10 nM E2 corresponding 100” value in assay [2] is reported as 3.8%.

For the compound `CC1(c2ccccc2)CC(CCc2ccccc2)=NO1` (single isomer, unassigned) [71a, 5-Methyl-3-phenethyl-5-phenyl-4,5-dihydroisoxazole], the “ERα receptor activation relative to 10 nM E2 corresponding 100” value in assay [1] is 8.1%. For the same compound, in assay [2], the “ERβ receptor activation relative to 10 nM E2 corresponding 100” value is −20.0%.

For the compound `CC1(c2ccccc2)CC(CCc2ccccc2)=NO1` (single isomer, unassigned) [71b, 5-Methyl-3-phenethyl-5-phenyl-4,5-dihydroisoxazole], in assay [1], the “ERα receptor activation relative to 10 nM E2 corresponding 100” value amounted to 10.9%. For the same compound, the “ERβ receptor activation relative to 10 nM E2 corresponding 100” value in assay [2] is −7.3%.

Regarding `COc1ccc(CCCC2=NOC(c3ccccc3)C2)cc1` (single isomer, unassigned) [72a, 3-[3-(4-Methoxy-phenyl)-propyl]-5-phenyl-4,5-dihydroisoxazole], the “ERα receptor activation relative to 10 nM E2 corresponding 100” value in assay [1] was determined as 9.2%. In assay [2], the “ERβ receptor activation relative to 10 nM E2 corresponding 100” value was −5.8%.

For `COc1ccc(CCCC2=NOC(c3ccccc3)C2)cc1` (single isomer, unassigned) [72b, 3-[3-(4-Methoxy-phenyl)-propyl]-5-phenyl-4,5-dihydroisoxazole], the “ERα receptor activation relative to 10 nM E2 corresponding 100” value in assay [1] is 1.2%. The “ERβ receptor activation relative to 10 nM E2 corresponding 100” value in assay [2] was −9.0%.

`Oc1ccc(C2=NOC(Cc3ccccc3)C2)cc1` (single isomer, unassigned) [80a, 5-Benzyl-3-(4-hydroxy-phenyl)-4,5-dihydro-isoxazole]: the “ERα receptor activation relative to 10 nM E2 corresponding 100” value in assay [1] was found to be 52.0%. Moreover, in assay [2], the activation at 10 µM turned out to be 28.5%.

Regarding `Oc1ccc(C2=NOC(Cc3ccccc3)C2)cc1` (single isomer, unassigned) [80b, 5-Benzyl-3-(4-hydroxy-phenyl)-4,5-dihydro-isoxazole], the “ERα receptor activation relative to 10 nM E2 corresponding 100” value in assay [1] is on record as 58.6%. Also, the “ERβ receptor activation relative to 10 nM E2 corresponding 100” value in assay [2] was found to be 17.7%.

Take `Oc1ccc(CC2=NOC(c3cccc(O)c3)C2)cc1` (single isomer, unassigned) [83a, 3-(4-Hydroxy-benzyl)-5-(3-hydroxy-phenyl)-4,5-dihydro-isoxazole]: the “ERα receptor activation relative to 10 nM E2 corresponding 100” value in assay [1] is 30.8%. Moreover, the activation at 10 µM in assay [2] is 33.2%.

As for `Oc1ccc(CC2=NOC(c3cccc(O)c3)C2)cc1` (single isomer, unassigned) [83b, 3-(4-Hydroxy-benzyl)-5-(3-hydroxy-phenyl)-4,5-dihydro-isoxazole], the “ERα receptor activation relative to 10 nM E2 corresponding 100” value in assay [1] was 3.6%. Further, the “ERβ receptor activation relative to 10 nM E2 corresponding 100” value in assay [2] is recorded as 41.3%.

`Oc1ccc(CCCC2=NOC(c3cccc(O)c3)C2)cc1` (single isomer, unassigned) [89a, 3-[3-(4-Hydroxy-phenyl)-propyl]-5-(3-hydroxy-phenyl)-4,5-dihydro-isoxazole]: the “ERα receptor activation relative to 10 nM E2 corresponding 100” value in assay [1] is given as 32.9%. In addition, the activation at 10 µM in assay [2] is 12%.

On to `Oc1ccc(CCCC2=NOC(c3cccc(O)c3)C2)cc1` (single isomer, unassigned) [89b, 3-[3-(4-Hydroxy-phenyl)-propyl]-5-(3-hydroxy-phenyl)-4,5-dihydro-isoxazole], for which, in assay [1], the “ERα receptor activation relative to 10 nM E2 corresponding 100” value came to 27.6%. The “ERβ receptor activation relative to 10 nM E2 corresponding 100” value in assay [2] was determined as 7.2%.

Consider `Oc1ccccc1CCC1=NOC(Cc2ccccc2)C1` (single isomer, unassigned) [91a, 5-Benzyl-3-[2-(2-hydroxy-phenyl)-ethyl]-4,5-dihydro-isoxazole], for which the “ERα receptor activation relative to 10 nM E2 corresponding 100” value in assay [1] is 104.8%. In assay [2], the activation at 10 µM is 19.2%.

For `Oc1ccccc1CCC1=NOC(Cc2ccccc2)C1` (single isomer, unassigned) [91b, 5-Benzyl-3-[2-(2-hydroxy-phenyl)-ethyl]-4,5-dihydro-isoxazole], the “ERα receptor activation relative to 10 nM E2 corresponding 100” value in assay [1] was found to be 39.7%. The “ERβ receptor activation relative to 10 nM E2 corresponding 100” value in assay [2] is given as 30.5%.

For `Oc1cccc(CCC2=NOC(Cc3ccccc3)C2)c1` (single isomer, unassigned) [92a, 5-Benzyl-3-[2-(3-hydroxy-phenyl)-ethyl]-4,5-dihydro-isoxazole], the “ERα receptor activation relative to 10 nM E2 corresponding 100” value in assay [1] is reported as 19.2%. The “ERβ receptor activation relative to 10 nM E2 corresponding 100” value in assay [2] amounted to 6.7%.

As for `Oc1cccc(CCC2=NOC(Cc3ccccc3)C2)c1` (single isomer, unassigned) [92b, 5-Benzyl-3-[2-(3-hydroxy-phenyl)-ethyl]-4,5-dihydro-isoxazole], in assay [1], the “ERα receptor activation relative to 10 nM E2 corresponding 100” value is on record as 15.7%. In addition, in assay [2], the “ERβ receptor activation relative to 10 nM E2 corresponding 100” value is −2.5%.

Values taken from US20100267784A1, “NOVEL 4,5-DIHYDROISOXAZOLES WITH ESTROGENIC ACTIVITY” (priority 2007, published 2010).
